Source: patent publication US6147095A (priority 1999, dated 2000)
“Also recorded” adds a separate entry of the source. Like-named read-outs stand apart in the source and are kept apart here.

What was measured:
[1] = human, in vivo
Experimental: The drugs were then coadministered for 10 days, after which the pharmacokinetics of each were re-evaluated and compared with baseline data. The study was conducted in 14 healthy volunteers (13 males and 1 female) with a mean age of 29.9 years (range, 21.3-43.9 years), height of 174.4 cm (range, 162.6-185.4 cm), and weight of 76.5 kg (range, 65.1-88.2 kg). Twelve subjects were Caucasian and two were of African descent. Ten subjects completed all aspects of the study. Pharmacokinetic analyses were based on the results obtained in these subjects. […] Detection was by UV absorbance at 260 nm.

[2] = clinical; conditions: human, in vivo, po, CLPO (oral clearance)
Experimental: (§1) Baseline pharmacokinetic data for each drug were obtained under pharmacokinetic steady-state conditions following 7 days of dosing. Each drug was then co-administered for 10 days, at which time the pharmacokinetics of each was re-evaluated and compared with baseline data. […] All subjects were Caucasian. […] Pharmacokinetic analyses were based on results obtained in these subjects.
Detection was by UV absorbance at 260 nm.
(§2) Treatment effects on pharmacokinetic parameters were assessed using Wilcoxon's Signed Rank Test.

[3] = system: CYP3A; test: Enzyme induction; conditions: previous studies / in vitro and in vivo data
[4] = human, in vivo; remark: listed apart in the source
Experimental: A pharmacokinetic profile was obtained under steady-state conditions following 7 days of dosing. […] Forty-four subjects were Caucasian, 2 were Black, and 2 were Asian.
An aliquot (0.150 mL) was initially injected onto a short Zorbax® RX-C8 column which was connected via a column switching valve to the analytical column, Zorbax® RX-C8 column. The mobile phase was composed of acetonitrile:methanol:0.1% TFA in water, (40:35:25, v/v). Detection was by UV absorbance at 260 nm.
(§3) Pharmacokinetic parameters such as AUC, Cmax, tmax, oral clearance, and terminal half-life, were determined using standard noncompartmental techniques.

[5] = system: HIV; conditions: reported for tipranavir; cited from earlier work
[6] = Table 1; cited from earlier work
[7] = Tipranavir drug-drug interaction potential (Table 1); conditions: with tipranavir
[8] = cited from earlier work
[9] = human, in vivo; remark: listed apart in the source
Experimental: as §1
Plasma samples were assayed for delavirdine concentrations using a validated, sensitive and specific isocratic high performance liquid chromatographic (HPLC) method: one for the upper concentration range, and one for the lower concentration range. […] The supernatant was mixed with buffer and directly injected. Chromatographic separation was achieved using a Brownlee cyano guard column and an analytical column, DuPont Zorbax® SB CN.
as §2

[10] = system: cytochrome P450 3A (CYP3A); conditions: known property; cited from earlier work
[11] = system: CYP3A; conditions: cited from earlier work
[12] = system: CYP3A; conditions: delavirdine 200, 300, and 400 mg TID, HIV-1 infected patients, serial erythromycin breath tests; cited from earlier work
[13] = system: CYP3A; conditions: Table 1; cited from earlier work
[14] = clinical; format: in vivo, human
Text: The drugs were then coadministered for 10 days, after which the pharmacokinetics of each were re-evaluated and compared with baseline data. […] Twelve subjects were Caucasian and two were of African descent. Ten subjects completed all aspects of the study. Pharmacokinetic analyses were based on the results obtained in these subjects. […] Ritonavir and the internal standard (IS) were extracted from human plasma by liquid-liquid extraction with an ethyl acetate mixture.

[15] = Study 2: pharmacokinetics of ritonavir co-administered with tipranavir in healthy volunteers; format: in vivo, human
Experimental: Both groups received their assigned dose of tipranavir continuously throughout the study period. […] The pharmacokinetics of tipranavir when coadministered with ritonavir were evaluated and compared with baseline data, while the ritonavir data were compared to historical data. The study was conducted in 19 healthy volunteers (16 males and 3 females) with a mean age of 30 years (range, 19-52 years), height of 177.1 cm (range, 162.6-190.5 cm), and weight of 76.7 kg (range, 57.3-95.0 kg). Eighteen subjects were Caucasian […]. […] Pharmacokinetic analyses were based on those subjects completing the baseline evaluation and at least one period of concomitant drug administration. […] Ritonavir and the internal standard (IS) were extracted from human plasma by liquid-liquid extraction with an ethyl acetate mixture.

[16] = human, in vivo; remark: listed apart in the source
Experimental: (§4) A pharmacokinetic profile was obtained under steady-state conditions following 7 days of dosing.
(§5) After elution from the SPE, a C-18AR analytical column was used to perform the chromatographic separation: the mobile phase was a gradient of methanol and 25 mM ammonium acetate. […] Retention times were approximately 1.5 minutes.
as §3

[17] = Example 4: pharmacokinetics of ritonavir oral solution with tipranavir SEDDS in healthy volunteers
Experimental: as §4, §5, §3

[18] = 200 mg BID with tipranavir 1250 mg BID vs ritonavir 500 mg BID alone

## CCC[C@@]1(CCc2ccccc2)CC(O)=C([C@H](CC)c2cccc(NS(=O)(=O)c3ccc(C(F)(F)F)cn3)c2)C(=O)O1 (relative stereo) [Tipranavir, [R-(R*,R*)]-N-[3-[1-[5,6-Dihydro-4-hydroxy-2-oxo-6-(2-phenylethyl)-6-propyl-2H-pyran-3-yl]propyl]phenyl]-5-(trifluoromethyl)-2-pyridinesulfonamide]
[1]
  effect on elimination half-life (t1/2): not accompanied by a prolongation of the elimination half-life
[2]
  CL/F: 468 mL/min
[3]
  enzyme induction by tipranavir: induces its own metabolism over a wide dosage range; also recorded: enzyme inducer
[4]
  CLPO (oral clearance): 12.7 (6.1-23.7) L/h
[4]; po
  effect on apparent terminal half-life: not significantly affected by ritonavir
[5]
  IC90: 1000 nM

## Nc1ccn([C@@H]2CS[C@H](CO)O2)c(=O)n1 [3TC]
[6]
  Principal Route(s) of Elimination: Excreted unchanged in urine

## Cc1cn([C@H]2C[C@H](N=[N+]=[N-])[C@@H](CO)O2)c(=O)[nH]c1=O [AZT]
[6]
  Principal Route(s) of Elimination: Conjugation/renal excretion
[7]
  Potential for Clinically Significant Interaction: Low

## CC(C)CN(C[C@@H](O)[C@H](Cc1ccccc1)NC(=O)O[C@H]1CCOC1)S(=O)(=O)c1ccc(N)cc1 [Amprenavir]
[6]
  Principal Route(s) of Elimination: CYP3A
[8]; Table 1, protease inhibitors
  decrease of AUC by rifampin: ~ 80%
[7]
  Potential for Clinically Significant Interaction: High (and unfavorable)

## CC(C)Nc1cccnc1N1CCN(C(=O)c2cc3cc(NS(C)(=O)=O)ccc3[nH]2)CC1 [Delavirdine]
[9]
  CLPO (oral clearance): 5.18 (1.5-7.8) L/h
[10]
  inhibition of CYP3A: inhibits cytochrome P450 monooxygenase (CYP3A)
[11]
  inhibition of CYP3A in vitro: non-competitively inhibit CYP3A
[12]
  inhibition of CYP3A in vivo: rapid and significant inhibition of CYP3A
[8]; coadministration of either rifabutin or rifampin
  delavirdine clearance with rifabutin or rifampin: marked increase in delavirdine clearance

## O=C1Nc2ccc(Cl)cc2[C@@](C#CC2CC2)(C(F)(F)F)O1 [Efavirenz]
[13]
  CYP3A induction: possible CYP3A inducer

## CC(C)(C)NC(=O)[C@@H]1CN(Cc2cccnc2)CCN1C[C@@H](O)C[C@@H](Cc1ccccc1)C(=O)N[C@H]1c2ccccc2C[C@H]1O [Indinavir]
[8]; Table 1, protease inhibitors
  decrease of AUC by rifampin: ~ 80%

## Cc1c(O)cccc1C(=O)N[C@@H](CSc1ccccc1)[C@H](O)CN1C[C@H]2CCCC[C@H]2C[C@H]1C(=O)NC(C)(C)C [Nelfinavir]
[8]; human, in vivo
  decrease of AUC by rifampin: ~ 80%

## Cc1ccnc2c1NC(=O)c1cccnc1N2C1CC1 [Nevirapine]
[8]; in vivo
  decrease of nevirapine concentrations by rifampin: ~ 40%

## CC(C)c1nc(CN(C)C(=O)N[C@H](C(=O)N[C@@H](Cc2ccccc2)C[C@H](O)[C@H](Cc2ccccc2)NC(=O)OCc2cncs2)C(C)C)cs1 [Ritonavir, (2S,3S,5S)-5(N-(N-((N-Methyl-N-((2-isopropyl-4-thiazoly)methyl)amino)carbonyl)-L-valinyl)amino)-2-(N-((5-thiazoly)methoxycarbonyl)amino)-1,6-diphenyl-3-hydroxhexane]
[14]; human, in vivo
  effect on apparent half-life of elimination: shorter apparent half-life of elimination
[14]; human, in vivo, po
  CL/F: 85 mL/min
  CLPO (oral clearance): 5.1 (3.9-7.8) L/h
  Tmax: 3.0 (1.0-4.0) h
[14]; human, plasma, po, 500 mg
  half-life: 2.9 h
[14]; ritonavir 500 mg BID alone
  plasma ritonavir concentrations vs reported values: slightly higher than those reported in HIV-infected patients receiving ritonavir 600 mg doses twice daily
[14]; ritonavir 500 mg BID with tipranavir
  plasma ritonavir concentrations vs published values: lower than published values for ritonavir 300 mg doses administered twice daily to HIV-infected patients
[14]; ritonavir 500 mg BID with tipranavir 1350 mg BID vs alone
  decrease in mean steady-state ritonavir concentrations: ~5 -fold
[15]; Examples 1 and 2
  effect of tipranavir on blood levels of ritonavir: lower blood levels of ritonavir
[15]; co-administration of lowest tipranavir dose tested (600 mg BID)
  ritonavir concentrations: significantly and substantially declined
[15]; human, in vivo
  effect on elimination half-life: shortening of the elimination hall-life
[15]; ritonavir 500 mg BID with tipranavir 600 or 900 mg BID vs ritonavir alone
  decrease in steady-state plasma ritonavir concentrations: ~4 -fold
[16]
  effect on apparent elimination half-life: decreased relative to ritonavir given alone
[17]; [18]
  decrease of median ritonavir AUC: 12 -fold
  decrease of median ritonavir Cmax: 10 -fold
  decrease of median ritonavir Cmin: 54 -fold
[17]; presence of tipranavir
  ritonavir concentrations in the presence of tipranavir: greatly decreased

## CC(C)(C)NC(=O)[C@@H]1C[C@@H]2CCCC[C@@H]2CN1C[C@@H](O)[C@H](Cc1ccccc1)NC(=O)[C@H](CC(N)=O)NC(=O)c1ccc2ccccc2n1 [Saquinavir]
[8]; human, in vivo
  decrease of AUC by rifampin: ~ 80%
[7]
  Potential for Clinically Significant Interaction: High (and unfavorable)

## O=c1[nH]cnc2c1ncn2[C@H]1CC[C@@H](CO)O1 [ddI]
[6]
  Principal Route(s) of Elimination: Tubular secretion
[7]
  Potential for Clinically Significant Interaction: Low
